Common to all, as to format: cell-based
For experiment [1], the target named is T1, Transient Receptor Potential Melastatin 3 (TRPM3) (Homo sapiens, UniProt Q9HCF6). In words: Ca2+ measurement; […] inhibits PregS-evoked but not nifedipine-evoked TRPM3 activity. Also noted: human TRPM3 expressed in HEK 293 cells.
Experiment [2] has as its target T1, Transient Receptor Potential Melastatin 3 (TRPM3). In words: Ca2+ measurement and whole-cell patch-clamp inhibition; steroid overlay binding of TRPM3-YFP lysate. Set-up: human TRPM3 expressed in HEK 293 cells; TRPM3-YFP for overlay. (In general: Patch clamp records ionic current or voltage across a cell membrane.)
The target is the same in experiment [3]. In words: Overlay binding assay with lysate of HEK […] cells expressing TRPM3-YFP. Set-up: human TRPM3 tagged with YFP.

T1 sequence (Q9HCF6 whole entry): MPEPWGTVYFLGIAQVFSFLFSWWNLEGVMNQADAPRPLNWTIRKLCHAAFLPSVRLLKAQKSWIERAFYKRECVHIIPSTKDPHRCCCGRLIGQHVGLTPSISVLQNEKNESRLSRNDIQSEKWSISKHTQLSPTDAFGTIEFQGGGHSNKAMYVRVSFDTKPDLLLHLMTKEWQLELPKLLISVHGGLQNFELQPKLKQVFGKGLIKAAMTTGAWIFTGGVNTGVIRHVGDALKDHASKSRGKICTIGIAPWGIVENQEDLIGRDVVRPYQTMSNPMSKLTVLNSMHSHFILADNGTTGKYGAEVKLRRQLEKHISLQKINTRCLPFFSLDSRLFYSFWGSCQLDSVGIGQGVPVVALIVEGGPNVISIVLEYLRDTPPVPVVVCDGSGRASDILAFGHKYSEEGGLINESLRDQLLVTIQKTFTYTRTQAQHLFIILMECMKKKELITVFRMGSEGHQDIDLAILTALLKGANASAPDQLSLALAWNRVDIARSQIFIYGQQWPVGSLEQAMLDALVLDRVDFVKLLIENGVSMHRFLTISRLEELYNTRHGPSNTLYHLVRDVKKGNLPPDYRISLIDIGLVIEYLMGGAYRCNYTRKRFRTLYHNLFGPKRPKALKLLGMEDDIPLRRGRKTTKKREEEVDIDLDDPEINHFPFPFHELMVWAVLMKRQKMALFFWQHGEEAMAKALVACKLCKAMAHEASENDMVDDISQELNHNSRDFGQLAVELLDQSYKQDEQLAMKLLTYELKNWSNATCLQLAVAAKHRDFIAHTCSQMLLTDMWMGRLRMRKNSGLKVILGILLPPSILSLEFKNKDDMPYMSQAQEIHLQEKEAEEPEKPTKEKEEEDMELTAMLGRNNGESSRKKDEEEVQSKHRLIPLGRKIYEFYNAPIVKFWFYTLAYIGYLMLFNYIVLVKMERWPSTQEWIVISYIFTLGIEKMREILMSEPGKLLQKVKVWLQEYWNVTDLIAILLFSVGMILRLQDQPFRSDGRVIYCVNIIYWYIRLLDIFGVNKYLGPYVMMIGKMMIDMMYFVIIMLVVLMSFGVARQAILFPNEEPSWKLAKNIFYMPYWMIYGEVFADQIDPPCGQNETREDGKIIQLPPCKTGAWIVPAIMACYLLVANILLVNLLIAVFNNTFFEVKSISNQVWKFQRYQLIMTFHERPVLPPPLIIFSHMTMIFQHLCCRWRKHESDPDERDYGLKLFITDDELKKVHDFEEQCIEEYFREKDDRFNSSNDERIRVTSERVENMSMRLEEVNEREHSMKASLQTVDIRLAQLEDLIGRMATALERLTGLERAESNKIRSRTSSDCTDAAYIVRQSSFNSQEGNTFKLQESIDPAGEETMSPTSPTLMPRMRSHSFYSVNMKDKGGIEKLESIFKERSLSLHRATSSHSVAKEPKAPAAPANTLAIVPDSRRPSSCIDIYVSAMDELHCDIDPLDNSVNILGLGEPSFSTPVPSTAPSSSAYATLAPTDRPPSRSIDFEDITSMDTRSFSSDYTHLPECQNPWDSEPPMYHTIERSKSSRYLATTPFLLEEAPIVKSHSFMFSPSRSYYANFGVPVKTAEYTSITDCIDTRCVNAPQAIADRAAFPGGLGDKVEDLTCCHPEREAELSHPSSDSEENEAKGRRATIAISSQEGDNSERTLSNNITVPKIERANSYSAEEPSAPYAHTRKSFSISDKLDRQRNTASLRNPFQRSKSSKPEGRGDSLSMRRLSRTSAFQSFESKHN

As to `CS(=O)(=O)c1ccc(C(=O)Nc2ccc(N3CCCC3)cc2)c(Cl)c1` [2-CMNPBC, 2-chloro-4-(methylsulphonyl)-N-[4-(1 pyrrolidinyl)phenyl]benzenecarboxamide], the “Ca2+ measurement; 10 μM inhibits PregS-evoked but not nifedipine-evoked TRPM3 ac” value in experiment [1] is recorded as “(2-CMNPBC, Fig. 9a), which also inhibited pregnenolone sulphate-evoked TRPM3 activity”.
Turning to `CC(=O)[C@H]1CC[C@H]2[C@@H]3CCC4=CC(=O)CC[C@]4(C)[C@H]3CC[C@]12C` [prog, progesterone], in experiment [2], the “Ca2+ measurement and whole-cell patch-clamp inhibition; steroid overlay binding” value is “TRPM3 bound to pregnenolone sulphate, progesterone, nifedipine, dihydrotestosterone and cholesterol”.
With `CC(C)CCC[C@@H](C)[C@H]1CC[C@H]2[C@@H]3CC=C4C[C@@H](O)CC[C@]4(C)[C@H]3CC[C@]12C` [cholesterol], the “Overlay binding assay with lysate of HEK 293 cells expressing TRPM3-YFP” value in experiment [3] is “TRPM3 bound to pregnenolone sulphate, progesterone, nifedipine, dihydrotestosterone and cholesterol”.

(Values after PMC3275754, “Pregnenolone sulphate-independent inhibition of TRPM3 channels by progesterone” (Cell Calcium, 2012).)
